What was measured:
PR-A = target: T1, PR-A (Homo sapiens, UniProt P06401); experiment: PR-A transactivation of PRE2 tk-LUC; assay type: cell-based; set-up: PRE2 tk-LUC in CV-1
T1 sequence (P06401 165-933): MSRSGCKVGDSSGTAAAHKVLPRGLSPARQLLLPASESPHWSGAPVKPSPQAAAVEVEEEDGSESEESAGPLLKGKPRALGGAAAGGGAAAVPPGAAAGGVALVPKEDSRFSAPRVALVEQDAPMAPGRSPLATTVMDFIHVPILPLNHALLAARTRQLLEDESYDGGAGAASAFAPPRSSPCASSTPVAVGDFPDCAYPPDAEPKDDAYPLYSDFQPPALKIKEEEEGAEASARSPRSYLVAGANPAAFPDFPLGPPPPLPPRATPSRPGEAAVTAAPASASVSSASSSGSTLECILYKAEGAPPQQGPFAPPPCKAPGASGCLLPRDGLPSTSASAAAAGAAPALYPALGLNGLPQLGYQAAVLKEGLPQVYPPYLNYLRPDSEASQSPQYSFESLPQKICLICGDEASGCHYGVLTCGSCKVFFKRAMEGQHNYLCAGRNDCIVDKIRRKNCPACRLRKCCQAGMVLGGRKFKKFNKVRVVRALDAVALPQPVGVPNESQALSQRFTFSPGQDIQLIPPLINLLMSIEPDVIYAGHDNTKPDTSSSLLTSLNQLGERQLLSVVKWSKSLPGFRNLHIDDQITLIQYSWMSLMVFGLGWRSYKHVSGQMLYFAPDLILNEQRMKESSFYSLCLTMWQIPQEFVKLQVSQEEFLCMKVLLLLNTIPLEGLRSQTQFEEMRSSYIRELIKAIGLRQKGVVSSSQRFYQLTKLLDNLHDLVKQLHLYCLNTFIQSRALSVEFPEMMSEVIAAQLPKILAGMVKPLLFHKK
Experimental: FIGS. 4A-4B are a series of graphs showing CV-1 ([…]) or HepG2 (FIG. 4B) cells that were transiently transfected with either […] of phPR-B or phPR-A alone, or phPR-B in the presence of increasing concentrations of phPR-A, together with 5 µg/ml of the PRE2 tk-LUC reporter and 5 µg/ml of pCH110 as an internal control. HeLa cells (FIG. 4C) were transfected with either phPR-B or phPR-A together with 5 µg/ml of the pTAT2950 reporter and 5 µg/ml of pCH110 as an internal control. […] The relative luciferase activity is calculated by dividing the normalized luciferase value at a given point by that obtained in the absence of transfected receptor or ligand. The data shown represent the mean +/- average deviation from the mean of triplicate estimations;
Both reporter plasmids were digested with XhoI and HindIII restriction enzymes and a 6.7 Kb fragment from MMTV-LUC and a 0.12 Kb fragment from PRE2 tk-CAT were isolated and ligated, resulting in a plasmid called PRE2 tk-LUC.
Cells were seeded in 12-well, 96-well or 10 cm tissue culture plates. […] 20 μg of DNA/ml of transfection buffer were used in each transfection reaction. […]

human vitamin D receptor = experiment: VDR transcriptional activity on VDRE2 tk-LUC with PR-A, CV-1 cells; assay type: cell-based; conditions: absence or presence of progesterone, FIG. 7
Text: The data shown represent the mean value +/- the average deviation from the mean of triplicate determinations;
To analyze the specificity of PR-A action, we examined its ability to affect other receptor-dependent transcription systems. For this purpose, phPR-A was cotransfected with a vector expressing the vitamin D receptor (VDR) and assayed on a VDRE2 tk-LUC reporter (available from Dr. J. Wesley Pike, Ligand Pharmaceuticals, Inc.).

CC(=O)[C@H]1CC[C@H]2[C@@H]3CCC4=CC(=O)CC[C@]4(C)[C@H]3CC[C@]12C [progesterone]
PR-A transcriptional activity on PRE2 tk-LUC (PR-A; CV-1, 10^-7 M progesterone, FIG. 4A): transcriptionally inactive
PR-A transcriptional activity on PRE2 tk-LUC (PR-A; HepG2, 10^-7 M progesterone, FIG. 4B): activator of transcription
effect of PR-A co-expression on hormone-dependent transactivation by VDR (human vitamin D receptor): not substantially affected

Reference: patent publication US5506102A (priority 1993, dated 1996)
